Values of other authors in article PMC10772668 (Clinical and Translational Science, 2023).

Conditions: cited from earlier work

CN1C(=O)[C@@H](NC(=O)c2nnc(Cc3ccccc3)[nH]2)COc2ccccc21 [GSK2982772]
Safety and tolerability (clinical development): safe and well‐tolerated
Tolerability and ALT abnormalities (healthy participants): well‐tolerated with no reports of ALT abnormalities
